Experimental data published in article PMC7914897, “Cytotoxic Potential of a-Azepano- and 3-Amino-3,4-SeCo-Triterpenoids” (International Journal of Molecular Sciences, 2021).

Tests used:
[1] = system: SK-MEL-5 (Melanoma); experiment: NCI-60 screen (SRB, 48 h)
[2] = system: MDA-MB-435 (Melanoma); experiment: NCI-60 screen (SRB, 48 h); type: cell-based; settings: Homo sapiens
[3] = system: EKVX (NSC lung cancer); experiment: NCI-60 screen (SRB, 48 h); settings: Homo sapiens
[4] = system: SK-OV-3 (Ovarian cancer); experiment: NCI-60 screen (SRB, 48 h); settings: Homo sapiens
[5] = system: NCI-H226 (NSC lung cancer); experiment: NCI-60 screen (SRB, 48 h); settings: Homo sapiens
[6] = system: COLO 205 (Colon cancer); experiment: NCI-60 screen (SRB, 48 h); settings: Homo sapiens
[7] = system: NCI-H460 (NSC lung cancer); experiment: NCI-60 screen (SRB, 48 h); settings: Homo sapiens
[8] = system: OVCAR-3 (Ovarian cancer); experiment: cells; settings: Homo sapiens
[9] = system: 786-0 (Renal cancer); experiment: NCI-60 screen (SRB, 48 h); settings: Homo sapiens
[10] = system: MDA-MB-468 (Breast cancer); experiment: cells; settings: Homo sapiens
[11] = system: Melanoma subpanel; experiment: NCI-60 screen, subpanel; settings: Homo sapiens
[12] = system: MOLT-4 (Leukemia); experiment: NCI-60 screen (SRB, 48 h); settings: Homo sapiens
[13] = system: U251 (CNS cancer); experiment: NCI-60 screen (SRB, 48 h); settings: Homo sapiens
[14] = system: HCC-2998 (Colon cancer); experiment: NCI-60 screen (SRB, 48 h); settings: Homo sapiens
[15] = system: MCF7 (Breast cancer); experiment: NCI-60 screen (SRB, 48 h); settings: Homo sapiens
[16] = system: HOP-62 (NSC lung cancer); experiment: NCI-60 screen (SRB, 48 h); settings: Homo sapiens
[17] = system: MALME-3M (Melanoma); experiment: NCI-60 screen (SRB, 48 h); settings: Homo sapiens
[18] = system: RPMI-8226 (Leukemia); experiment: NCI-60 screen (SRB, 48 h); settings: Homo sapiens
[19] = system: Leukemia subpanel; experiment: cells; settings: Homo sapiens
[20] = system: MDA-MB-31/ATCC (Breast cancer); experiment: NCI-60 screen (SRB, 48 h); settings: Homo sapiens
[21] = system: Renal Cancer subpanel; experiment: NCI-60 screen, subpanel; settings: Homo sapiens
[22] = system: SK-MEL-28 (Melanoma); experiment: NCI-60 screen (SRB, 48 h); settings: Homo sapiens
[23] = system: Breast cancer subpanel; experiment: NCI-60 screen, subpanel; settings: Homo sapiens
[24] = system: Prostate cancer subpanel; experiment: NCI-60 screen, subpanel; settings: Homo sapiens
[25] = system: OVCAR-5 (Ovarian cancer); experiment: NCI-60 screen (SRB, 48 h); settings: Homo sapiens
[26] = system: SNB-19 (CNS cancer); experiment: NCI-60 screen (SRB, 48 h); settings: Homo sapiens
[27] = system: SK-MEL-2 (Melanoma); experiment: NCI-60 screen (SRB, 48 h); settings: Homo sapiens
[28] = system: SNB-75 (CNS cancer); experiment: NCI-60 screen (SRB, 48 h); settings: Homo sapiens
[29] = system: CCRF-CEM (Leukemia); experiment: NCI-60 screen (SRB, 48 h); settings: Homo sapiens

SMILES: C=C(C)C1CCC2(CO)CCC3(C)C(CCC4C5(C)CCCNC(C)(C)C5CCC43C)C12 (centres unmarked) [Compound 1, Azepanobetulin]
- GI50 ([1]; Homo sapiens, SK-MEL-5): 1.38 µM
- IC (TGI) ([1]; Homo sapiens, SK-MEL-5, 48 h, read-out: TGI): 2.7 µM
- CC50 ([1]; Homo sapiens, SK-MEL-5, read-out: LC50): 5.28 µM
- Growth % of the Most Sensitive Cell Lines ([1]; SK-MEL-5, 1 dose 10 µM): −82.49%
- IC (TGI) ([2]; MDA-MB-435, 48 h, read-out: TGI): 2.95 µM
- GI50 ([2]; MDA-MB-435, read-out: GI50): 1.56 µM
- GI50 [3]: 1.55 µM
- IC (TGI) ([3]; 48 h, read-out: TGI): 3.03 µM
- CC50 ([3]; read-out: LC50): 5.92 µM
- GI50 ([4]; SK-OV-3): 1.83 µM
- IC (TGI) ([4]; SK-OV-3, 48 h, read-out: TGI): 3.49 µM
- CC50 ([4]; SK-OV-3, read-out: LC50): 6.64 µM
- GI50 ([5]; NCI-H226): 1.98 µM
- IC (TGI) ([5]; NCI-H226, 48 h, read-out: TGI): 4.09 µM
- CC50 ([5]; NCI-H226, read-out: LC50): 8.43 µM
- GI50 ([6]; COLO 205): 1.54 µM
- IC (TGI) ([6]; COLO 205, 48 h, read-out: TGI): 3.24 µM
- CC50 ([6]; COLO 205, read-out: LC50): 6.82 µM
- GI50 ([7]; NCI-H460): 1.63 µM
- IC (TGI) ([7]; NCI-H460, 48 h, read-out: TGI): 3.21 µM
- CC50 ([7]; NCI-H460, read-out: LC50): 6.3 µM
- GI50 ([8]; OVCAR-3): 1.66 µM
- IC (TGI) ([8]; OVCAR-3, 48 h, read-out: TGI): 3.13 µM
- CC50 ([8]; OVCAR-3, read-out: LC50): 5.91 µM
- GI50 ([9]; 786-0): 1.62 µM
- IC (TGI) ([9]; 786-0, 48 h, read-out: TGI): 3.16 µM
- CC50 ([9]; 786-0, read-out: LC50): 6.19 µM
- GI50 ([10]; MDA-MB-468): 1.66 µM
- IC (TGI) ([10]; MDA-MB-468, 48 h, read-out: TGI): 3.38 µM
- CC50 ([10]; MDA-MB-468, read-out: LC50): 6.88 µM
- IC (TGI) ([11]; 48 h, read-out: TGI MG_MID): 3.19 µM
- GI50 ([11]; read-out: GI50 MG_MID): 1.64 µM
- CC50 ([11]; read-out: LC50 MG_MID): 6.12 µM
- GI50 ([12]; MOLT-4): 1.79 µM
- IC (TGI) ([12]; MOLT-4, 48 h, read-out: TGI): 4.5 µM
- CC50 ([12]; MOLT-4, read-out: LC50): > 100 µM
- GI50 ([13]; U-251): 1.65 µM
- IC (TGI) ([13]; U-251, 48 h, read-out: TGI): 3.09 µM
- CC50 ([13]; U-251, read-out: LC50): 5.76 µM
- GI50 ([14]; HCC 2998): 1.51 µM
- IC (TGI) ([14]; HCC 2998, 48 h, read-out: TGI): 2.93 µM
- CC50 ([14]; HCC 2998, read-out: LC50): 5.68 µM
- GI50 ([15]; MCF7): 1.29 µM
- IC (TGI) ([15]; MCF7, 48 h, read-out: TGI): 2.77 µM
- CC50 ([15]; MCF7, read-out: LC50): 5.94 µM
- GI50 ([16]; HOP-62): 1.81 µM
- IC (TGI) ([16]; HOP-62, 48 h, read-out: TGI): 3.42 µM
- CC50 ([16]; HOP-62, read-out: LC50): 6.46 µM
- GI50 [17]: 1.5 µM
- IC (TGI) ([17]; 48 h, read-out: TGI): 3.05 µM
- CC50 ([17]; read-out: LC50): 6.18 µM
- GI50 ([18]; RPMI-8226): 1.94 µM
- IC (TGI) ([18]; RPMI-8226, 48 h, read-out: TGI): 4.51 µM
- CC50 ([18]; RPMI-8226, read-out: LC50): > 100 µM
- IC (TGI) ([19]; 48 h, read-out: TGI MG_MID): 4.3 µM
- GI50 ([19]; read-out: GI50 MG_MID): 1.69 µM
- CC50 ([19]; read-out: LC50 MG_MID): > 100 µM
- GI50 [20]: 1.77 µM
- IC (TGI) ([20]; 48 h, read-out: TGI): 3.21 µM
- CC50 ([20]; read-out: LC50): 5.8 µM
- IC (TGI) ([21]; 48 h, read-out: TGI MG_MID): 3.43 µM
- GI50 ([21]; read-out: GI50 MG_MID): 1.71 µM
- CC50 ([21]; read-out: LC50 MG_MID): 9.33 µM
- GI50 ([22]; SK-MEL-28): 1.62 µM
- IC (TGI) ([22]; SK-MEL-28, 48 h, read-out: TGI): 3.15 µM
- CC50 ([22]; SK-MEL-28, read-out: LC50): 6.13 µM
- IC (TGI) ([23]; 48 h, read-out: TGI MG_MID): 3.55 µM
- GI50 ([23]; read-out: GI50 MG_MID): 1.71 µM
- CC50 ([23]; read-out: LC50 MG_MID): 11.5 µM
- IC (TGI) ([24]; 48 h, read-out: TGI MG_MID): 2.98 µM
- GI50 ([24]; read-out: GI50 MG_MID): 2.98 µM
- CC50 ([24]; read-out: LC50 MG_MID): 5.66 µM
- GI50 ([25]; OVCAR-5): 1.51 µM
- IC (TGI) ([25]; OVCAR-5, 48 h, read-out: TGI): 2.89 µM
- CC50 ([25]; OVCAR-5, read-out: LC50): 5.52 µM
- GI50 ([26]; SNB-19): 1.75 µM
- IC (TGI) ([26]; SNB-19, 48 h, read-out: TGI): 3.2 µM
- CC50 ([26]; SNB-19, read-out: LC50): 5.86 µM
- GI50 ([27]; SK-MEL-2): 1.84 µM
- IC (TGI) ([27]; SK-MEL-2, 48 h, read-out: TGI): 3.75 µM
- GI50 ([28]; SNB-75): 1.54 µM
- IC (TGI) ([28]; SNB-75, 48 h, read-out: TGI): 2.91 µM
- CC50 ([28]; SNB-75, read-out: LC50): 5.5 µM
- GI50 [29]: 2.07 µM
- IC (TGI) ([29]; 48 h, read-out: TGI): 4.91 µM
- CC50 ([29]; read-out: LC50): > 100 µM
